These results are taken from patent publication US9745325B2, “Fused heterocyclic compound” (Takeda Pharmaceutical Company Limited, priority 2014, dated 2017).

Experiment [1] has as its system SW480 human colorectal cancer cells. The experiment is described as follows: Antitumor efficacy in mice bearing SW480 human colorectal cancer cells. The class given is in vivo, BALB/c female nude mice. Conditions: oral, 14 days. The method, then:
The compound of the present invention was evaluated for its antitumor efficacy in mice bearing cancer derived from SW480 human colorectal cancer cells by the following method.
SW480 human colorectal cancer cells were transplanted into 6- to 7-week-old BALB/c female nude mice (CLEA Japan) by subcutaneous injection of 2.0×10^6 cells per mouse. At 7 to 14 days after the transplantation, the size of the engrafted tumor was measured, and the tumor volume was calculated according to the following formula. Tumor volume=major axis×minor axis×minor axis×(½)
Test subjects having an engrafted tumor with a tumor volume of approximately 100 mm^3 were selected and used in the experiment (6 subjects per group). A suspension of each test compound in a 0.5% methylcellulose solution (Wako Pure Chemical Industries) was orally administered to the mice for 14 days at the dose (mg/kg, indicating the amount per dose) and the number of doses shown in Table 4. On the day before the start of the administration and the day before the completion of the administration, the tumor size was measured, and the tumor volume was calculated.
Percent tumor growth (T/C (%)) of the test compound administration group relative to the control administration group was calculated according to the following formula. T/C (%)=(tumor volume of the test compound administration group after the completion of the administration−tumor volume of the test compound administration group at the day before the start of the administration)/(tumor volume of the control administration group after the completion of the administration−tumor volume of the control administration group at the day before the start of the administration))×100

Experiment [2] concerns the target T1, CDC2L6/CycC (CDK19) (Homo sapiens, UniProt Q9BWU1).
T1 construct: purchased Carna Biosciences Inc
In words: CDK19 inhibitory activity (Kinase Tracer-236 / Eu-anti-GST fluorescence assay). The class given is binding. Set-up: Percent inhibition of CDK19 activity (%): concentration or dose not given beside the values. The conditions noted are these: test compound concentration given as '1 1.1.1\4' [sic]. The essentials: (§1)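 Tracer-displacement TR-FRET binding assay: compound with kinase, Eu-cryptate anti-GST antibody and 60 nM Kinase Tracer-236 (pre-dilution level), 1 h at room temperature; ex 320 nm, em 615/665 nm. Percent inhibition is relative to no-compound control and a 10 μM control-compound blank.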

Experiment [3] concerns the target T2, CDK8/CycC (Homo sapiens, UniProt P49336).
T2 construct: purchased Carna Biosciences
In words: CDK8 inhibitory activity (Kinase Tracer-236 / Eu-anti-GST fluorescence assay). Further details: Percent inhibition of CDK8 activity (%): concentration or dose not given beside the values. Conditions: test compound concentration given as '1 1.1.1\4' [sic]. In kind it is binding. The method in brief:
as §1

Experiment [4] deals with human multiple myeloma RPMI8226 cells. The experiment is described as follows: Inhibitory activity against human multiple myeloma RPMI8226 cell growth (CellTiter-Glo). In kind it is cell-based. The conditions noted are these: Homo sapiens, RPMI-8226, 192 h, 1 μM test compound, cultured for 8 days; read-out: Percent inhibition of RPMI8226 cell growth (%). The method in brief:
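RPMI8226 cells (300/well) cultured 1 day at 37 °C, 5% CO2, then given compound at 1 μM for 8 days. ATP luminescence (CellTiter-Glo) read; percent inhibition relative to 0.1% DMSO wells.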

T1 sequence (Q9BWU1 whole entry): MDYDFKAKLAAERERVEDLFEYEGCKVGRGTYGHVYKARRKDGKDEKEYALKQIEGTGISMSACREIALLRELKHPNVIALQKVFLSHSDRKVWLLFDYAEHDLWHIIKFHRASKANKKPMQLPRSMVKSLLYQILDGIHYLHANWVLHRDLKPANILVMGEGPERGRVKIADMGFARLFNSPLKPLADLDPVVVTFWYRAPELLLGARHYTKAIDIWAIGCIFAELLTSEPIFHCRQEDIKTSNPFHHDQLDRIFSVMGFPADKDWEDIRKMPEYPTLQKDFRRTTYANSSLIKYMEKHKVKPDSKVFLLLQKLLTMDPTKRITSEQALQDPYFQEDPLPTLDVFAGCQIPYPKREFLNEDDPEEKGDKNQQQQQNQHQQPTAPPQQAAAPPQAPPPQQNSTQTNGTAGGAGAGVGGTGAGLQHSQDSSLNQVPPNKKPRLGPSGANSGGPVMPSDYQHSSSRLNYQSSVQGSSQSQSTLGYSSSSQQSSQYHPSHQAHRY
T1 sequence (P24863 whole entry partner): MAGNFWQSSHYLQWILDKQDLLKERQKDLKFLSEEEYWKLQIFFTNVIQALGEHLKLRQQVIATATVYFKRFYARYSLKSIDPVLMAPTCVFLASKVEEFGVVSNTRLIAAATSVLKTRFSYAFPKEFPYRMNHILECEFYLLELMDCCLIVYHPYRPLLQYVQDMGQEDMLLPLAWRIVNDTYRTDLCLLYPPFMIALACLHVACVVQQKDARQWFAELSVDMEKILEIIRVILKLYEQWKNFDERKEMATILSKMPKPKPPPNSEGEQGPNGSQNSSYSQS
T2 sequence (P49336 whole entry): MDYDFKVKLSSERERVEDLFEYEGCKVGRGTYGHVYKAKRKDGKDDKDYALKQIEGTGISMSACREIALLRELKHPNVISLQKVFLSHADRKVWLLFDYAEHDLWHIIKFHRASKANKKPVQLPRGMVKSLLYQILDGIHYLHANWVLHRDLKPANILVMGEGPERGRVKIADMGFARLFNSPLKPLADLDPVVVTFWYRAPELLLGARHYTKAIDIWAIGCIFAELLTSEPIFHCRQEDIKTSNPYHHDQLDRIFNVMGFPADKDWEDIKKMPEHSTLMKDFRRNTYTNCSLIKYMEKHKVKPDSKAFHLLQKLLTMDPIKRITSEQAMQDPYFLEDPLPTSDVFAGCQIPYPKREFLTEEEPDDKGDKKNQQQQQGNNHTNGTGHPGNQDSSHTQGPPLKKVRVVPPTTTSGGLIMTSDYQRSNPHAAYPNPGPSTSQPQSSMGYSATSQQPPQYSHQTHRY
T2 sequence (P24863 whole entry partner): as the sequence (P24863 whole entry partner) above

By inhibition is commonly meant the drop in the measured response relative to a control, in per cent. `NC(=O)c1ccc(Oc2sc(C(N)=O)c3c2-c2sncc2CC3)cn1` [Example 13, 8-((6-Carbamoylpyridin-3-yl)oxy)-4,5-dihydrothieno[3,4-g][1,2]benzothiazole-6-carboxamide]: the “T/C (%)” value in experiment [1] (15 mg/kg, 1 dose per day) is on record as 50%. Moreover, the “Percent inhibition of CDK19 activity (%)” value in experiment [2] stood at 98%. In addition, in experiment [3], the “Percent inhibition of CDK8 activity (%)” value came out at 97%. In experiment [4], the inhibition at 1 µM was found to be 69%.

For the compound `Cc1nc(C(=O)NCC(C)(C)O)ccc1Oc1sc(C(N)=O)c2c1-c1sncc1CC2` [Example 24, 8-((6-((2-Hydroxy-2-methylpropyl)carbamoyl)-2-methylpyridin-3-yl)oxy)-4,5-dihydrothieno[3,4-g][1,2]benzothiazole-6-carboxamide], in experiment [1] (10 mg/kg, 1 dose per day), the “T/C (%)” value came to 32%. Also, the “Percent inhibition of CDK19 activity (%)” value in experiment [2] is 99%. The “Percent inhibition of CDK8 activity (%)” value in experiment [3] was 102%. In addition, in experiment [4], the inhibition at 1 µM is 64%.

Regarding `COCCNC(=O)c1ccc(Oc2sc(C(N)=O)c3c2-c2sncc2CC3)cn1` [Example 18, 8-((6-((2-Methoxyethyl)carbamoyl)pyridin-3-yl)oxy)-4,5-dihydrothieno[3,4-g][1,2]benzothiazole-6-carboxamide], the “T/C (%)” value in experiment [1] (10 mg/kg, 1 dose per day) was 30%. In experiment [2], the “Percent inhibition of CDK19 activity (%)” value is given as 100%. Further, in experiment [3], the “Percent inhibition of CDK8 activity (%)” value was 103%. The inhibition at 1 µM in experiment [4] is 63%.

As to `Cc1nn(C)c(C)c1Oc1sc(C(N)=O)c2c1-c1sncc1CC2` [Example 32, 8-((1,3,5-Trimethyl-1H-pyrazol-4-yl)oxy)-4,5-dihydrothieno[3,4-g][1,2]benzothiazole-6-carboxamide], in experiment [1] (15 mg/kg, 2 doses per day), the “T/C (%)” value came to 36%. The “Percent inhibition of CDK19 activity (%)” value in experiment [2] was found to be 100%. Also, the “Percent inhibition of CDK8 activity (%)” value in experiment [3] amounted to 107%. In addition, in experiment [4], the inhibition at 1 µM is 63%.

In the case of `Cc1c(Oc2sc(C(N)=O)c3c2-c2sncc2CC3)ccc[n+]1[O-]` [Example 9, 8-((2-Methyl-1-oxidopyridin-3-yl)oxy)-4,5-dihydrothieno[3,4-g][1,2]benzothiazole-6-carboxamide], the “T/C (%)” value in experiment [1] (5 mg/kg, 1 dose per day) was determined as 30%. Also, the “Percent inhibition of CDK19 activity (%)” value in experiment [2] worked out at 98%. Also, the “Percent inhibition of CDK8 activity (%)” value in experiment [3] stood at 97%. Also, the inhibition at 1 µM in experiment [4] was found to be 63%.
